{"source": "patent US20230073755A1", "about": "“USE OF IGF1 IN COMBINATION WITH IGFEC24 IN PREPARATION OF MEDICINE FOR PROMOTING TISSUE REPAIR AND REGENERATION” (Chongqing University, priority 2020, published 2023)", "format_in_all_cases": "in vivo", "key": {"cardiomyocytes [1]": {"system": "cardiomyocytes", "assay": "Cardiomyocyte proliferation effect assay (Edu / cTnI immunofluorescence of heart tissue), adult female SD rats", "settings": "tail vein injection 7 consecutive days, IGF1-24 100 μg/kg or molar equivalents, FIG. 1-2", "protocol": "(§1) In certain embodiments, adult female SD rats were divided into five groups: PBS group, IGF1 group, IGF1Ec group, IGF1-24 group, and IGF1+IGF1Ec24 peptide group, with three rats in each group. The rats in each group were distinguished by ear clipping for subsequent protein injection according to the different body weights of the rats.\n(§2) The rats in each group were injected with PBS, IGF1, IGF1Ec24 peptide, IGF1Ec and IGF1-24 for 7 consecutive days. Recombinant protein IGF1-24 was injected at 100 μg/kg, and the injection of the remaining proteins in each group was converted according to the molar amount of IGF1-24 injection as follows: 90 μg/kg for IGF1, 8.9 μg/kg for IGF1Ec24 peptide, 104 μg/kg for IGF1Ec.\nBefore protein injection, the rats were first weighed with a bench scale, and their body weight and the amount of protein injected were recorded and converted; then the rats were fixed with a rat fixator and their tails were exposed, and their tails were soaked in hot water for 1-2 min to stretch the tail vessels and facilitate the search for blood vessels; then the tails were wiped with alcohol cotton balls; after the tail vein was identified, the needle was inserted into the vessel at a 45° angle to the tail vein and the drug was slowly pushed in; the needle before pressing the wound with cotton to stop the bleeding, and then pull out the needle. […]"}, "cardiomyocytes [2]": {"system": "cardiomyocytes", "assay": "Cardiomyocyte proliferation effect assay (Edu), 13-month-old C57 mice", "settings": "aged (13-month-old) female mice; IGF1-24 100 μg/kg for 7 days; PBS group 0.5%; FIG. 3", "protocol": "Female 13-month-old mice were divided into 2 groups, PBS group and IGF1-24 group, with 6 mice in each group, and the mice in each group were distinguished by ear tags for subsequent protein injection according to the different body weights of the mice. The mice in each group were injected with PBS and IGF1-24 for 7 consecutive days, and the recombinant protein IGF1-24 was injected at 100 μg/kg. After seven days of protein injection, Edu solution at a concentration of […] was injected intraperitoneally for seven consecutive days, so that the final total dose of each mouse reached 50 mg/kg. […]"}, "skeletal muscle cells": {"system": "skeletal muscle cells", "assay": "Skeletal muscle cell proliferation effect (Edu / Desmin immunofluorescence of gastrocnemius muscle), SD rats", "settings": "gastrocnemius muscle sections, FIG. 8", "protocol": "as §1, §2\nAfter seven days of protein injection, the intraperitoneal injection of Edu solution at a concentration of 2.5 mg/kg was performed for seven days, so that the final total dose of each rat reached 50 mg/kg. […]"}}, "data": [{"substance": "IGF1-24: 97 amino acids: amino-terminal 70 identical to IGF1, carboxyl-terminal 24 identical to IGFEc24 peptide, joined by three Gly linkers (SEQ ID NO: 4)", "values": [{"measurement": "number of Edu-positive cardiomyocytes", "setting": "cardiomyocytes [1]", "value": 2.6, "unit": "%"}, {"measurement": "number of Edu-positive cardiomyocytes", "setting": "cardiomyocytes [2]", "value": 1.5, "unit": "%"}, {"measurement": "number of Edu-positive skeletal muscle cells per square millimeter", "setting": "skeletal muscle cells", "value": 28, "unit": "per square millimeter"}]}]}
